One block for each molecule: values may come before it.
Legend:
[1] = Body weight and death of nude mice bearing U-87MG (toxicity and side effect); settings: for weight loss of nude mice: 50 and 100 mg/kg intraperitoneally once daily, 17 days
Protocol: LI-87MG Cells were inoculated subcutaneously in right axillary fossa of nude mice with 5×10^6 cells per mouse. After the xenografted tumor was formed, it was passed three generations in nude mice and then used. Tumor tissue in productive phase was cut into nubs of about 1.5 mm^3 and inoculated subcutaneously in right axillary fossa of the nude mice in a sterile condition. The diameters of the xenografted tumors were measured by a vernier caliper. […] The administration was performed once daily and lasted for 17 days. At the same time, the negative group was administered with equivalent physiological saline.
wherein, CVt was tumor volume in control group measured at a given time point, CV0 was tumor volume in control group measured before grouping and treatment, TVt was tumor volume in treatment group measured at a given time point, and TV0 was tumor volume in treatment group measured before grouping and treatment. The significant differences between the treated and control groups were evaluated using t-test. At the same time, body weight of nude mice in each group was measured twice a week to preliminarily evaluate the toxicity and side effect of compound.

[2] = system: Human Glioblastoma Cells U-87MG Xenograft; assay: Tumor growth in human glioblastoma U-87MG xenograft model of nude mice; type: in vivo; settings: for tumor growth inhibition (TGI): 17 days, end of treatment; for inhibitory action on the growth of transplanted tumor: at each administration dose (50, 100 mg/kg i.p. daily)
Protocol: The treatment group was administered intraperitoneally and daily with compound I-19 at various concentrations (50 mg/kg, 100 mg/kg) respectively.
The length (A) and width (B) of the tumor in mice were measured twice a week and tumor volume was calculated thereby as: V=A×B^2/2. Provided that Vt was the tumor volume measured at a given time point and V0 was the tumor volume measured before the mice were grouped and administered, tumor growth inhibition (TGI) was calculated as: […]

[3] = system: NIH3T3 background cells; assay: Cell proliferation, SRB assay, NIH3T3 background cells as control; type: cell-based; settings: 72 h; for inhibition at 1 µM / inhibition at 10 µM / inhibition at 50 µM: Mus musculus, NIH3T3, read-out: inhibition rate (%) on proliferation of NIH3T3 background cells
Protocol: NIH3T3/TPR-Met cells in the logarithmic growth phase and NIH3T3 background cells were seeded in a 96-well microcuture plate at 90111_, per well and cultivated overnight, followed by addition of 104 of the compound at different concentrations. Three concentrations were set, and for each concentration, the test was carried out in triplicate wells. 72 h later, the culture medium was removed. The residue was fixed by precooled 10% TCA at 4° C. for 1 h, washed by distilled water for 5 times and dried at room temperature. After that, 4 mg/mL of sulforodamine B (SRB) in 1% glacial acetic acid was added to each well (1004 per well) for staining at room temperature for 15 min. The excess dye was removed by washed with 1% glacial acetic acid for 5 times and dried in air. At last, 150 μL of Tris-HCL solution (10 mM Tris, pH 10.0) was added to each well. OD values were measured on a multi-well spectrophotometer at […].

[4] = system: NIH3T3/TPR-Met cells; assay: Cell proliferation mediated by c-Met, SRB assay, NIH3T3/TPR-Met cells; type: cell-based; settings: 72 h; for inhibition at 1 µM / inhibition at 10 µM / inhibition at 50 µM: Mus musculus, NIH3T3, read-out: inhibition rate (%) on proliferation of NIH3T3/TPR-Met cells
Protocol: Three concentrations were set, and for each concentration, the test was carried out in triplicate wells. 72 h later, the culture medium was removed. The residue was fixed by precooled 10% TCA at 4° C. for 1 h, washed by distilled water for 5 times and dried at room temperature. […] The excess dye was removed by washed with 1% glacial acetic acid for 5 times and dried in air. At last, 150 μL of Tris-HCL solution (10 mM Tris, pH 10.0) was added to each well.

[5] = biological target: c-Met tyrosine kinase (Homo sapiens, UniProt P08581); assay: c-Met kinase activity on molecular level (ELISA, Poly(Glu,Tyr)4:1 substrate); type: biochemical; settings: ATP 5 μM, 37° C., 1 h
Protocol: Poly(Glu, Tyr)4:1 as an enzyme substrate was diluted by potassium ion-free PBS (10 mM, sodium phosphate buffer, 150 mM NaCl, pH7.2-7.4) into a solution of 20 μg/ml. […] After the liquid in wells was removed, the plate was washed three time by T-PBS (PBS solution containing 0.1% Tween-20) at 200 μl/well, 5 min for each time. The ELISA plate was then dried in an oven at 37° C. for 1-2 h.
Each well was added with 50 μL of ATP solution diluted by reaction buffer (50 mM HEPES pH 7.4, 50 mM MgCl2, 0.5 mM MnCl2, 0.2 mM Na3VO4, 1 mM DTT) at a final concentration of 5 μM. Compound diluted by 1% DMSO into a suitable concentration was added at 10 μl/well and then c-Met tyrosine kinase protein diluted by 40 μl of reaction buffer was added. The plate was placed on a shaking table (100 rpm) at 37° C. and incubated for 1 h, and then washed three times by T-PBS. For each assay, triplicate wells without enzyme were used as blank control and wells having the corresponding DMSO concentration without compound were used as negative control. Primary antibody PY99 (p-Tyr (PY99), Cell Signaling Technology, 1:1000 diluted in 5 mg/mL BSA T-PBS) was added at 100 μl/well. The plate was then placed on a shaking table at 37° C. and incubated for 0.5 h, and washed by T-PBS. Secondary antibody horseradish peroxidase-conjugated goat anti-mouse IgG (1:2000 diluted in 5 mg/mL BSA T-PBS) was added at 100 μl/well. The plate was then placed on a shaking table at 37° C. for 0.5 h and washed three times by T-PBS. 2 mg/mL of OPD developer (diluted by a 0.1M citric acid-sodium citrate buffer (pH=5.4) containing 0.03% of H2O2) was added at 100 μl/well, and the plate was kept in dark at 25° C. for 1-10 min. OPD was ultrasonically dissolved and the developer solution was prepared just before use. 2 M of H2SO4 was added at 50 μl/well to stop the reaction. The plate was read using a wavelength regulated multi-well spectrophotometer (SPECTRA MAX 190) at 490 nm.
The inhibition rate was calculated according to the following equation:
Inhibition rate (%)=(1−(ODcompound−ODblank)/(ODnegative−ODblank))×100%
IC50 value was calculated through a four-parameter fit according to the inhibition curve.

[6] = biological target: T1, TPR-Met (Homo sapiens, UniProt P08581); assay: TPR-Met phosphorylation in NIH3T3/TPR-Met cells (Western blot); type: cell-based; settings: 0.01 μM, 6 h
T1 construct: therein no interference of Met's extracellular fragment, and the intracellular TPR-Met fused protein was expressed in cytoplasm; expressed in transfected cells; host or cells: NIH3T3/TPR-Met cells (mouse fibroblasts expressing TPR-Met); the other entry of the earlier key: TPR (P12270, Nucleoprotein TPR)
Protocol: NIH3T3/TPR-Met cells (in such cells, therein no interference of Met's extracellular fragment, and the intracellular TPR-Met fused protein was expressed in cytoplasm and could be activated continuously independent of HGF) were inoculated on a 12-well plate. After fusion degree reached 80%, the cells were treated with indicated concentration of corresponding compounds and SU11274 for 6 h at 37° C., collected and washed once by cold PBS (containing 1 mM sodium vanadate), and lysed with 1×SDS gel loading buffer (50 mM Tris-HCl (pH 6.8), 100 mM DTT, 2% SDS, 10% glycerin, 1 mM sodium vanadate, and 0.1% bromophenol blue). The lysate was heated in a boiling-water bath for 10 min and then centrifuged (12000 rpm) at 4° C. for 10 min.
The supernatant was subjected to SDS-PAGE electrophoresis and the protein was transferred to nitrocellulose membranes (Amersham Life Sciences, Arlington Heights, Ill., USA) by a Semi-Dry Electroblotting System. […] The membrane was washed three times by TBS/T containing 1 mM of sodium vanadate, 15 min for each time, and then placed in a solution of secondary antibody (1:2000) at room temperature for 1-2 hours. After the membranes were washed 3 times as above, they were dyed with an ECL reagent, exposed and developed.
The nitrocellulose membranes were placed in Reblot™ solution of Chemicon co. […]

[7] = 100 mg/kg intraperitoneally once daily
[8] = 50 mg/kg intraperitoneally once daily

Sequence of c-Met tyrosine kinase (P08581 25-1390): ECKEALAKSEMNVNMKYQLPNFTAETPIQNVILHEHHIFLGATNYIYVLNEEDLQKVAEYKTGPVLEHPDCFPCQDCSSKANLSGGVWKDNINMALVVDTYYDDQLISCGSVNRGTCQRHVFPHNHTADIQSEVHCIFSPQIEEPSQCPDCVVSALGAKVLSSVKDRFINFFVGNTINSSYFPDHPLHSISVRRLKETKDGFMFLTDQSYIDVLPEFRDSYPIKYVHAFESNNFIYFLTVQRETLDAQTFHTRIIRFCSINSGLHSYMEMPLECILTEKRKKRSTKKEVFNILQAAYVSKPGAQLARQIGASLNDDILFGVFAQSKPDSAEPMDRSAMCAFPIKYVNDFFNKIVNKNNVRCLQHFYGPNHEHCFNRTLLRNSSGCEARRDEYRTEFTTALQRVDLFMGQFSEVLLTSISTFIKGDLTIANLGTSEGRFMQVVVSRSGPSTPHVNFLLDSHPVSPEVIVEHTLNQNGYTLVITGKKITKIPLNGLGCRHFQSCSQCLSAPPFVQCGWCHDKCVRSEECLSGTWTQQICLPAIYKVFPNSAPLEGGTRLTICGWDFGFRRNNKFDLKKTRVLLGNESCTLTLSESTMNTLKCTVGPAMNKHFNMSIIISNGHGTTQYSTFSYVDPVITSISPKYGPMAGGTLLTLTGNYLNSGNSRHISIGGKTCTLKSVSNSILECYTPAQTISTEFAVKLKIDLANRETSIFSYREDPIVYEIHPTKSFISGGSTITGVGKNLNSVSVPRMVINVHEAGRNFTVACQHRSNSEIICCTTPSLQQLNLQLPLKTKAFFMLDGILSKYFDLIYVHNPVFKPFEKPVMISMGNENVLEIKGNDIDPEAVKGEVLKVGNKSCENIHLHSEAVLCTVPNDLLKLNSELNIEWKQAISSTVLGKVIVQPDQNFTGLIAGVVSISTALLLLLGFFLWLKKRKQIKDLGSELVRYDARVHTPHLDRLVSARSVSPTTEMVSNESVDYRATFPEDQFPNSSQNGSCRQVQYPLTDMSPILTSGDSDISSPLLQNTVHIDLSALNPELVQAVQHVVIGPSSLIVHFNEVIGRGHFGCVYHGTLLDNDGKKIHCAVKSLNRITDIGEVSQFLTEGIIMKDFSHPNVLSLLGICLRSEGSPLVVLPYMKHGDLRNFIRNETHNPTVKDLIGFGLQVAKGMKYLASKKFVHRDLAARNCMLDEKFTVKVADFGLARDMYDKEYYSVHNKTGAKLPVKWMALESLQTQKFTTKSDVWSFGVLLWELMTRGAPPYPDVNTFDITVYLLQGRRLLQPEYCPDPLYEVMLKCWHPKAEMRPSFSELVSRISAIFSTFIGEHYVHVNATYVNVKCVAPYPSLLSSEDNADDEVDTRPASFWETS
T1 sequence (P08581 with tags, fused parts or gaps): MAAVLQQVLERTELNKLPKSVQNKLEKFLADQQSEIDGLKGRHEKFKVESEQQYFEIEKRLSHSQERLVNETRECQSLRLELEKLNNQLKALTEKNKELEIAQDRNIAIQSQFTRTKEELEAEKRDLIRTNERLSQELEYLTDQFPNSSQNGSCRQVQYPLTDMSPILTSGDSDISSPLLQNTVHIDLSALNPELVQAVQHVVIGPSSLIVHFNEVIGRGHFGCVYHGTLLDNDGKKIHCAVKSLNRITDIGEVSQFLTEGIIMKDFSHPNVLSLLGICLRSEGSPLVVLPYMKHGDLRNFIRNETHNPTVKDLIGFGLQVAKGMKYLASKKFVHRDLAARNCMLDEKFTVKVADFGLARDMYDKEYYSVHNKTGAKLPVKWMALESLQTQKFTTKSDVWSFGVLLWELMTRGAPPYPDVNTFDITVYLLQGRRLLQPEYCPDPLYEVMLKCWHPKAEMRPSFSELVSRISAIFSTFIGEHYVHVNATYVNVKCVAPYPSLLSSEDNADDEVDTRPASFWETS

SMILES: Cn1cc(-c2cnc3nnc(C(F)(F)c4ccc5ncccc5c4)n3n2)cn1 [Compound I-19, 3-[(6-quinolyl)difluoromethyl]-6-[(1-methyl)-4-pyrazolyl]-[1,2,4]triazolo[4,3-b][1,2,4]triazine]
death of mice [1, 7]: one mouse died on the 9th day
weight loss of nude mice [1]: No mouse in I-19 or JNJ-38877605 treated group show obvious weight loss
tumor growth inhibition (TGI) [2, 8]: 83.9%
tumor growth inhibition (TGI) [2, 7]: 95.3%
inhibitory action on the growth of transplanted tumor [2]: significantly inhibitory action

IC50 [5]: 0.88 nM
SMILES: COc1ccc(-c2cnc3nnc(COc4ccnc5ccccc45)n3n2)cc1 [II-23, 3-(4-quinolyloxymethyl)-6-(4-methoxyphenyl)-[1,2,4]triazolo[4,3-b][1,2,4]triazine]
inhibition at 1 µM ([3]; 1 μM): 22.8%
inhibition at 10 µM ([3]; 10 μM): 49.8%
inhibition at 50 µM ([3]; 50 μM): 31.3%
inhibition at 1 µM ([4]; 1 μM): 29%
inhibition at 10 µM ([4]; 10 μM): 83.2%
inhibition at 50 µM ([4]; 50 μM): 88.5%

IC50 [5]: 0.2 nM
SMILES: COc1cc2nccc(OCc3nnc4ncc(-c5ccc(Br)cc5)nn34)c2cc1OC [II-16, 3-[(6,7-dimethoxy-4-quinolyl)oxymethyl]-6-(4-bromophenyl)-[1,2,4]triazolo[4,3-b][1,2,4] triazine]
inhibition at 10 µM ([3]; 10 μM): 56.2%
inhibition at 10 µM ([4]; 10 μM): 87.9%

IC50 [5]: 0.3 nM
SMILES: COc1cc2nccc(OCc3nnc4ncc(-c5ccc(OCc6ccccc6)cc5)nn34)c2cc1OC [II-19, 3-[(6,7-dimethoxy-4-quinolyl)oxymethyl]-6-(4-benzyloxyphenyl)-[1,2,4]triazolo[4,3-b][1,2,4] triazine]
inhibition at 1 µM ([3]; 1 μM): 24.9%
inhibition at 10 µM ([3]; 10 μM): 31.1%
inhibition at 50 µM ([3]; 50 μM): 83.4%
inhibition at 1 µM ([4]; 1 μM): 6.55%
inhibition at 50 µM ([4]; 50 μM): 97%

c-Met phosphorylation in NIH3T3/TPR-Met cells [6]: less potency
IC50 [5]: 0.95 nM
SMILES: Cn1cc(-c2ccc3nnc(C(F)(F)c4ccc5ncccc5c4)n3n2)cn1 [JNJ-38877605, reference compound]
weight loss of nude mice [1]: No mouse in I-19 or JNJ-38877605 treated group show obvious weight loss
inhibition rate (%) on proliferation of NIH3T3 background cells ([3]; 1 μM): 16.0%
inhibition rate (%) on proliferation of NIH3T3 background cells ([3]; 10 μM): 15.1%
inhibition rate (%) on proliferation of NIH3T3 background cells ([3]; 50 μM): 25.7%
inhibition rate (%) on proliferation of NIH3T3/TPR-Met cells ([4]; 1 μM): 70.8%
inhibition rate (%) on proliferation of NIH3T3/TPR-Met cells ([4]; 10 μM): 72.2%
inhibition rate (%) on proliferation of NIH3T3/TPR-Met cells ([4]; 50 μM): 77.3%
tumor growth inhibition (TGI) [2, 8]: 101.4%
tumor growth inhibition (TGI) [2, 7]: 106.9%
inhibitory action on the growth of transplanted tumor [2]: significantly inhibitory action

IC50 [5]: 0.78 nM
SMILES: Oc1ccc(-c2cnc3nnc(COc4ccnc5ccccc45)n3n2)cc1 [II-24, 3-(4-quinolyloxymethyl)-6-(4-hydroxyphenyl)-[1,2,4]triazolo[4,3-b][1,2,4]triazine]
inhibition at 1 µM ([3]; 1 μM): 17.1%
inhibition at 10 µM ([3]; 10 μM): 25.1%
inhibition at 50 µM ([3]; 50 μM): 28.4%
inhibition at 1 µM ([4]; 1 μM): 5.3%
inhibition at 10 µM ([4]; 10 μM): 53.1%
inhibition at 50 µM ([4]; 50 μM): 70.6%

IC50 [5]: 2.9 nM
SMILES: COc1cc2nccc(OCc3nnc4ncc(-c5ccccc5)nn34)c2cc1OC [II-17, 3-[(6,7-dimethoxy-4-quinolyl)oxymethyl]-6-phenyl-[1,2,4]triazolo[4,3-b][1,2,4]triazine]
inhibition at 10 µM ([3]; 10 μM): 1.2%
inhibition at 10 µM ([4]; 10 μM): 65.2%

IC50 [5]: 0.23 nM
SMILES: COc1ccc2c(OCc3nnc4ncc(-c5ccc(Br)cc5)nn34)ccnc2c1 [II-3, 3-[(7-methoxy-4-quinolyl)oxymethyl]-6-(4-bromophenyl)-[1,2,4]triazolo[4,3-b][1,2,4]triazine]
inhibition at 10 µM ([3]; 10 μM): 33.8%
inhibition at 10 µM ([4]; 10 μM): 77.3%

IC50 [5]: 32.4 nM
SMILES: COc1ccc2c(OCc3nnc4ncc(-c5ccc(OCc6ccccc6)cc5)nn34)ccnc2c1 [II-8, 3-[(7-methoxy-4-quinolyl)oxymethyl]-6-(4-benzyloxyphenyl)-[1,2,4]triazolo[4,3-b][1,2,4] triazine]
inhibition at 10 µM ([3]; 10 μM): 7.5%
inhibition at 10 µM ([4]; 10 μM): 81.2%

IC50 [5]: 0.88 nM
SMILES: Oc1cccc(-c2cnc3nnc(COc4ccnc5ccccc45)n3n2)c1 [II-27, 3-(4-quinolyloxymethyl)-6-(3-hydroxyphenyl)-[1,2,4]triazolo[4,3-b][1,2,4]triazine]
inhibition at 1 µM ([3]; 1 μM): 18.3%
inhibition at 10 µM ([3]; 10 μM): 37.7%
inhibition at 50 µM ([3]; 50 μM): 46%
inhibition at 1 µM ([4]; 1 μM): 9.2%
inhibition at 10 µM ([4]; 10 μM): 72.6%
inhibition at 50 µM ([4]; 50 μM): 80.7%

IC50 [5]: 3.7 nM
SMILES: COC(=O)c1ccc(-c2cnc3nnc(COc4ccnc5cc(OC)c(OC)cc45)n3n2)cc1 [II-18, 3-[(6,7-dimethoxy-4-quinolyl)oxymethyl]-6-(4-methoxyformylphenyl)-[1,2,4]triazolo[4,3-b] [1,2,4]triazine]
inhibition at 1 µM ([3]; 1 μM): 29.6%
inhibition at 10 µM ([3]; 10 μM): 37.3%
inhibition at 50 µM ([3]; 50 μM): 63.5%
inhibition at 1 µM ([4]; 1 μM): 5.6%
inhibition at 10 µM ([4]; 10 μM): 22.9%
inhibition at 50 µM ([4]; 50 μM): 82.6%

IC50 [5]: 0.56 nM
SMILES: COc1ccc2c(OCc3nnc4ncc(-c5ccc([N+](=O)[O-])cc5)nn34)ccnc2c1 [II-6, 3-[(7-methoxy-4-quinolyl)oxymethyl]-6-(4-nitrophenyl)-[1,2,4]triazolo[4,3-b][1,2,4]triazine]
inhibition at 1 µM ([3]; 1 μM): 46.2%
inhibition at 10 µM ([3]; 10 μM): 53.3%
inhibition at 50 µM ([3]; 50 μM): 50.6%
inhibition at 1 µM ([4]; 1 μM): 78.6%
inhibition at 10 µM ([4]; 10 μM): 82.4%
inhibition at 50 µM ([4]; 50 μM): 82.3%
